Laboratory results from the NIST ThermoML archive (doi:10.1007/s10765-009-0648-5).
Numbers after ± are expanded uncertainties.

Tests used:
[1] = 101 kPa, Liquid
[2] = wn = mass fraction of the nth substance listed; settings: 101 kPa, Liquid, w2 = 0

SMILES	mass density ([1]; 288.15 K) [kg/m3]	speed of sound ([1]; 288.15 K) [m/s]	mass density ([1]; 293.15 K) [kg/m3]	speed of sound ([1]; 293.15 K) [m/s]	mass density ([1]; 298.15 K) [kg/m3]	speed of sound ([1]; 298.15 K) [m/s]	mass density ([1]; 303.15 K) [kg/m3]	speed of sound ([1]; 303.15 K) [m/s]	mass density ([1]; 308.15 K) [kg/m3]	speed of sound ([1]; 308.15 K) [m/s]	mass density ([2]; 288.15 K) [kg/m3]	speed of sound ([2]; 288.15 K) [m/s]	mass density ([2]; 293.15 K) [kg/m3]	speed of sound ([2]; 293.15 K) [m/s]	mass density ([2]; 298.15 K) [kg/m3]	speed of sound ([2]; 298.15 K) [m/s]	mass density ([2]; 303.15 K) [kg/m3]	speed of sound ([2]; 303.15 K) [m/s]	mass density ([2]; 308.15 K) [kg/m3]	speed of sound ([2]; 308.15 K) [m/s]
CC#N [acetonitrile]	787.376 ± 1.4	1319.1 ± 1.4	782.007 ± 1.4	1299 ± 1.4	776.609 ± 1.4	1278.8 ± 1.4	771.183 ± 1.5	1258.5 ± 1.4	765.725 ± 1.5	1238.4 ± 1.4										
CC#N [acetonitrile] + CCC[n+]1ccn(C)c1.[Br-]											787.376 ± 1.4	1319.1 ± 1.4	782.007 ± 1.4	1299 ± 1.4	776.609 ± 1.4	1278.8 ± 1.4	771.183 ± 1.5	1258.5 ± 1.4	765.725 ± 1.5	1238.4 ± 1.4
C[S+](C)[O-] [dimethyl sulfoxide]	1105.34 ± 0.88	1519.1 ± 1.5	1100.31 ± 0.85	1502.2 ± 1.5	1095.28 ± 0.83	1485.2 ± 1.5	1090.25 ± 0.81	1468.3 ± 1.5	1085.23 ± 0.78	1451.5 ± 1.5										
C[S+](C)[O-] [dimethyl sulfoxide] + CCC[n+]1ccn(C)c1.[Br-]											1105.34 ± 0.88	1519.1 ± 1.5	1100.31 ± 0.85	1502.2 ± 1.5	1095.28 ± 0.83	1485.2 ± 1.5	1090.25 ± 0.81	1468.3 ± 1.5	1085.23 ± 0.78	1451.5 ± 1.5
CN(C)C=O [dimethylformamide]	953.442 ± 0.6	1496.6 ± 1.5	948.685 ± 0.62	1477.3 ± 1.5	943.917 ± 0.64	1457.8 ± 1.5	939.142 ± 0.67	1438.4 ± 1.5	934.357 ± 0.69	1419 ± 1.5										
CN(C)C=O [dimethylformamide] + CCC[n+]1ccn(C)c1.[Br-]											953.442 ± 0.6	1496.6 ± 1.5	948.685 ± 0.62	1477.3 ± 1.5	943.917 ± 0.64	1457.8 ± 1.5	939.142 ± 0.67	1438.4 ± 1.5	934.357 ± 0.69	1419 ± 1.5
